Columns and labels:
[1] = test system: stable U20S reporter cells harboring Per2-dLuc; assay: Per2 assay for evaluating the potency of test compounds (Per2-dLuc luminescence amplitude); assay type: cell-based
Experimental: Compounds were screened by using a high-throughput circadian assay system as previously described in Zhang, E. E. et al. Cell, 2009, 139, 199-210. In brief, stable U20S reporter cells harboring Per2-dLuc were plated at a density of 30,000 cells/well in Corning 96-well, solid white, flat bottom, TC-treated microplates (Corning®), and incubated for 48 hours at 37° C. in the presence of 5% CO2 in a medium of Dulbecco's Modified Eagle Medium (DMEM) supplemented with 10% fetal bovine serum (FBS) and penicillin (100 units/mL)-streptomycin (100 μg/mL). […] DMSO stocks are then serially diluted in DMSO, typically diluting 3-fold for each dilution step. […] Immediately following synchronization, 1 μL of compound dilution is added to each well. Plates are sealed, shaken briefly, and gene expression was monitored by measuring luminescence (Tecan® Infinite M200 or Tecan® Infinite M200 Pro) continuously for a minimum of 3 days at 35° C. Raw luminescence data (counts) are first analyzed using Multicycle™ software (Actimetrics, Inc.) to determine the amplitude (amp), period, and phase (phz) for each compound concentration. The period length for control wells (i.e. no compound, DMSO only) should be 26-30 h. Amp data are then plotted against the logarithm compound concentration (M) and analyzed by nonlinear regression analysis to determine the EC50.

[2] = test system: rat model of cortisone-induced insulin resistance; assay: Cortisone induced insulin resistance in rats; assay type: in vivo; details: cortisone 30 mg/kg sc with vehicle po
Experimental: Animals were dosed with cortisone (30 mg/kg sc qd) in combination with test compounds for 6 days and then terminated 27 hours after the final dose of cortisone. A reference standard (Mifepristone) was also included. Cortisone 21-acetate (Sigma C-3130) was supplied by RenaSci and administered using a dose volume of 5 ml/kg via the subcutaneous route as a fine suspension in 1% methylcellulose. […] Mifepristone (Sigma M8046) was provided by RenaSci.
Glucose and insulin determinations were performed on plasma samples obtained from a tail vein bleed taken after a 12 h fast, approximately 27 h after the last cortisone dose. Animals were then terminated and a terminal (cardiac) blood sample taken from which plasma was prepared.
Thirty four male Sprague Dawley rats (weight range 200-250 g) were ordered from Charles River, Margate, Kent, UK. […] Subsequently, animals underwent a 3 day baseline period during which they were dosed once daily with vehicle at t=0 h (07:00). […] Body weight was recorded immediately before dosing began at 07:00 (t=0 h).
On Day 6 of dosing rats were fasted for 12 h beginning at 22:30 (timed to coincide with the Day 7 termination). […] At 10:30 on Day 7, 27 h after the final dose of cortisone, a blood sample (300 μl) was taken from the lateral tail vein into tubes containing EDTA (Sarstedt 16.444). The blood was centrifuged and resultant plasma aliquot stored at −75° C. The animals were euthanized by CO2 asphyxiation followed by cervical dislocation. Terminal blood (approximately 10 ml) was collected by cardiac puncture into tubes containing EDTA (Sarstedt 5 ml 32.332) and then centrifuged and plasma stored at −75° C. The tail vein plasma was analyzed for glucose (n=2) using a commercial clinical reagent (Thermoelectron Infinity glucose reagent (TR15421) and for insulin (n=1) using the Mercodia ultrasensitive rat insulin rat ELISA (10-1251-10).
Plasma glucose and insulin were analyzed by robust regression or general linear model with treatment as a factor and bleeding order and baseline body weight as covariates. A log transformation was used if appropriate. Appropriate multiple comparison tests (two-tailed) were used to determine significant differences from the vehicle group and from the Cortisone group. P<0.05 was considered to be statistically significant.

[3] = test system: core clock genes Per2, Bmal1, Cry2 in liver; assay: Four day study, liver core clock gene mRNA in ICR mice; assay type: in vivo, mouse; details: 50 mg/kg PO BID 4 days; for liver Per2 expression: ZT6
Experimental: Male ICR mice (weighing 30-35 g), obtained from Charles River Laboratories (Hollister, Calif.), were used for the experiment following at least 3 days of acclimation. Mice were dosed with vehicle (WFI or 10% Kolliphor) or compound (50 mg/kg, dose volume 5 mL/kg, PO) for 4 days BID (twice a day), beginning in the afternoon of the first day. The last dose of compound or vehicle was administered on the morning of harvest. On the day of harvest (6 hours following the final dose), mice were euthanized by CO2 asphyxiation and 50 mg of liver tissue was excised and placed in a tube containing 500 μl of RNA later.
E.Z.N.A.® HP Total RNA Isolation Kits (R6812-01 and the protocol described in the Manual, Revised 2010) were utilized to prepare and isolate RNA from the liver samples. To prepare the RNA samples, 10-30 mg of sample was removed from RNA-Later and placed in a 1.5 ml microfuge tube. GTC lysis buffer (700 μl) was added to the tissue, which was homogenized with a rotor-stator homogenizer (e.g. Tissue-Tearor, Model #985370 BioSpec Products with 4.5 mm probe, Cat. #985370-04), and then centrifuged at full speed (≥13,000×g) for 5 minutes. The cleared supernatant was transferred by pipetting to a DNA Clearance Column Pre-inserted in a 2 mL Collection Tube. The assembled column was centrifuged at 13,000×g for 1 minute, and the flow-through was saved. An equal volume (700 μl) of 70% ethanol was added to the lysate and mixed. The sample was then applied to a HiBind RNA spin column placed into a 2 ml collection tube, which was centrifuged at 10,000×g for 60 seconds at room temperature. RNA Wash Buffer I (250 μl) was added by pipetting directly onto a new HiBind RNA column inserted in a 2 ml collection tube. The assembled column was centrifuged at 10,000×g for 60 seconds. The RNA column was placed into a new 2 ml collection tube. DNase I stock solution is pipetted (75 μl) directly onto the surface of the HiBind RNA resin in each column (Using DNAse Digestion with RNase Free DNase Set (E1091): for each HiBind RNA column, the DNase I stock solution was prepared as followed: E.Z.N.A.® DNase I Digestion Buffer 73.5 μl, RNase Free DNase I (20 Kunitz/μl) 1.5 μl=Total Volume 75 μl). The column with bound RNA was incubated at room temperature (25-30° C.) for 15 minutes. RNA Wash Buffer I (500 μl) was added to the column and placed on a bench top for 2 minutes. After centrifuging at 10,000×g for 60 seconds, discarding the flow-through, 500 μl of RNA Wash Buffer II was added and centrifuged at 10,000×g for 60 seconds. Another 500 μl of RNA Wash Buffer II was added and the column assembly was centrifuged at 10,000×g for 60 seconds. The column was centrifuged for 2 minutes at maximum speed to completely dry the HiBind matrix. The column was placed in a clean 1.5 ml microcentrifuge tube and 40-70 μl of molecular biology grade water is added. After sitting for 1 minute, the column was centrifuged for 2 minutes at maximum speed to elute the RNA. The isolated RNA was collected into the collection tube.
RediPlate 96 RiboGreen RNA Quantification Kit (Invitrogen) RediPlate standard curve was prepared by transferring 20 l reconstituted RNA standard to a RediPlate well reconstituted in 180 l RediPlate TE buffer. For liver RNAs prepared from 30-100 mg of tissue using a kit similar to the Omega Bio-Tek HP Total RNA Kit and eluted in RNAse-free water in a volume of 50 l (microliters), 5 l of the total RNA is diluted in 195 l of RediPlate TE buffer (1:40 dilution of RNA), mix. After transferring 5 l to RediPlate well reconstituted in 195 l TE buffer and incubating 10 min. at RT, Fluorescence Intensity of wells with standards and samples were read in a Tecan M200 with Excitation set at 480 nm and Emission set at 520 nm with the gain set to ˜70%. Alternatively, one can use the FlexStation 3 with Ex 488 nm and Em 525 nm and a Cutoff of 515 nm.

**Q.** With `C[C@@H]1CN(C[C@H](O)Cn2c3ccccc3c3ccccc32)C(=O)N1` [Compound 138, (R)-1-((R)-3-(9H-carbazol-9-yl)-2-hydropropyl)-4-methylimidazolidin-2-one] as the compound, how does the EC50 [1] read?
**A.** 520 nM

**Q.** `C[C@]12CCC(=O)C=C1CC[C@@H]1[C@@H]2C(=O)C[C@@]2(C)[C@H]1CC[C@]2(O)C(=O)CO` [Cortisone] was tested. Which HOMA-IR [2] did it give?
**A.** 95.57+/−11.4 units

**Q.** What about the fasted plasma insulin [2] of the same compound?
**A.** 8.19 ± 0.91 ng/mL

**Q.** And the fasted plasma glucose ([2]; rats)?
**A.** 10.17 ± 0.51 mM

**Q.** Which “liver Per2 expression” value [3] does the source give for `COC1CCCN(CC(O)Cn2c3ccc(F)cc3c3cc(F)ccc32)C1=O` (stereo not drawn) [Compound 57, 1-(3-(3,6-difluoro-9H-carbazol-9-yl)-2-hydroxypropyl)-3-methoxypiperidin-2-one] here?
**A.** suppression

**Q.** And the “increase in Bmal1 mRNA at ZT6” value ([3]; liver)?
**A.** ≥ 2 fold

**Q.** How did the “liver Per2 expression” value [3] turn out when `O=C1C2CCC(C2)N1CC(O)Cn1c2ccc(F)cc2c2cc(F)ccc21` (stereo not drawn) [Compound 48, 2-(3-(3,6-difluoro-9H-carbazol-9-yl)-2-hvdroxypropyl)-2-azabicyclo[2.2.1]heptan-3-one] was run?
**A.** suppression

**Q.** What about the Cry2 transcripts ([3]; liver) of the same compound?
**A.** decrease

**Q.** And the “increase in Bmal1 mRNA at ZT6” value ([3]; liver)?
**A.** 8 fold
